Values quoted from earlier work in patent EP0086705A1, “Aqueous solution of ursodeoxycholic acid for therapeutic uses, process for its preparation and its utilization for the treatment of cholelithiasis” (S.A. PANMEDICA Société dite:, priority 1982, dated 1983).

Conditions: 37"C

## C[C@H](CCC(=O)O)[C@H]1CC[C@H]2[C@@H]3[C@H](O)C[C@@H]4C[C@H](O)CC[C@]4(C)[C@H]3CC[C@]12C [acide chénodésoxycholique]
  pH de précipitation de la solution: 7,0
